# Results from patent US9464093B2, “Substituted imidazo[4',5':4,5]cyclopenta[1,2-e]pyrrolo[1,2-a]pyrazines and oxazolo[4',5':4,5]cyclopenta[1,2-e]pyrrolo[1,2-a]pyrazines for treating brain cancer” (Mayo Foundation for Medical Education and Research, priority 2012, dated 2016).
# “Also recorded” adds a separate entry of the source.
# What was measured:
# [1] = test system: Raji lymphoma cells; experiment: Matrigel invasion assay; assay type: cell-based; settings: 1 hour pre-treatment with log dilutions
# Description: Invasion assays were performed in triplicate using BD Biocoat Matrigel Invasion Chamber (BD Biosciences: Sparks, Md.) according to manufacturer's instructions (8-μm pore-size). Five percent serum was used as a chemoattractant in the bottom chamber. […] Viability of Raji cells was ascertained by Trypan blue test after the treatment with AA. Statistical analysis was performed using two-tailed Student's T-Test.
# [2] = test system: NFkB signaling; experiment: NFkB reporter assay in Raji cells; assay type: cell-based; settings: 100 nM and 500 nM for 48 hours
# Text: 10^5 Raji cells were co-transfected overnight with a Cignal firefly luciferase-expressing NFkB reporter plasmid (NFkBr; SA Biosciences) together with a constitutively expressed Renilla luciferase reporter plasmid containing a CMV promoter. A promoterless vector (Neg-Luc) was co-transfected with the Renilla reporter for control. […] Data are presented as a ratio of firefly-to-Renilla luciferase luminescence.
# [3] = test system: NFkB signaling; experiment: In vivo NFkB signaling of Raji cells implanted in murine brain (BLI); set-up: species or system athymic mice; settings: 2.5 mg/kg and 5 mg/kg intraperitoneally the day after implantation
# Description: An in-vivo experiment was also performed to assess impact of Agelastatin A on NFkB signaling in Raji cells implanted inside the murine brain. In serum free medium, Raji cells were transfected with NFkB reporter system. 25,000 cells were intracerebrally injected into athymic mice. […] Bioluminescence imaging (BLI) of NFkB activity of intracerebral Raji lymphoma cells were measured on day 4 post intracerebral implantation.
# [4] = test system: Raji lymphoma cells; experiment: Ex vivo murine brain slice invasion assay; assay type: cell-based; settings: cells pretreated with 100 nM for four days; day 5 post-incubation; vs DMSO
# Description: The impact of Agelastatin A on the brain invasiveness of Raji B lymphoma cells was assessed ex vivo using a modified murine brain slice invasion assay. Briefly, these cells were first pre-transfected with luciferase (SP-DiI; Molecular Probes) just prior to invasion assays. Slice cultures of whole brains were produced from C57 mice. Two-month-old male C57BL/6J mice were sacrificed by CO2 inhalation. Mice brains were removed, placed into sterile ice-cold PBS, and then coronally sectioned with a 1 mm coronal brain matrix into 1 mm slices at +2.00 to −1.00 bregma. Brain slices were placed aseptically onto transwell (8 μm pore size) membranes in six-well dishes. Culture media (DMEM, 10% FCS, […], 100 U/ml penicillin, 100 μg/ml streptomycin, and 2.5 μg/ml amphotericin B) was added into each well to a point just below that which would cover the brain slice. […] Cells were allowed to attach to the brain surface for one hour before the media was adjusted to just cover the surface of the slice. After 5 days incubation, the extent of lymphoma cell invasion into the brain slice was quantitated by bioluminesence imaging (BLI) in both slice and media. Brain slices were fixed in 4% paraformaldehyde for CD20 staining to identify Raji cells, which had invaded the brain slices. […]
# [5] = test system: Raji lymphoma cells; experiment: Intracerebral dissemination of lymphoma cells (CD20 IHC); assay type: in vivo, athymic mice
# Text: Paraffin sections (10 μm thick) were fixed and mounted onto glass slides, blocked, and immunostained with antibody to CD20 to identify B lymphoma cells.
# Murine brains harvested from the in-vivo experiments to assess the pre-clinical therapeutic activity of AA were studied by IHC. CD20-positive lymphoma cells were counted in the cerebral hemisphere contralateral to the tumor implantation side for dissemination in lateral, anterior, and posterior directions by ScanScope XT slide scanner and image analysis system (Aperio Spectrum, Vista, Calif.). One-way ANOVA was used to determine the statistical significance of the difference between the treated group and untreated control group.
# [6] = CNS pharmacokinetic analysis in rats (microdialysis, CE-UV); settings: male, Sprague-Dawley, rat, in vivo, iv, 2.5 mg/kg
# Description: Male Sprague-Dawley rats (Harlan, Indianapolis, Ind., USA) were used in this CNS pharmacokinetic study on Agelastatin A and its three analogues (CAA, CEAA, and DCEAA). Six rats were used for each drug. The rats were approximately 2 months old and weighed 300±25 g at the beginning of the study. All rats were housed in a temperature-controlled room (23±2° C.) with a 12:12 light dark cycle (lights off at 6:00 pm). Purina 5001 Rodent Chow and tap water were available ad libitum at all times.
# Rats were anesthetized with gasiform isoflurane (1% isoflurane in a mixture of 20% oxygen and 80% nitrogen gas) and immobilized in a stereotaxic frame (KOPF Instruments, Tujunga, Calif.). Anesthesia was maintained during the entire procedure. The guide cannula (CMA Microdialysis Inc., Acton, Mass.) was stereotactically implanted into the lateral ventricle (AP −0.9, L 1.6, V 3.4, relative to bregma and skull), and then secured to the skull by screws and dental cement. Following surgery, each rat was housed individually with food and water ad libitum for 3 days for recovery from cannulation surgery. Microdialysis experiments were carried out on conscious, freely moving rats. On the day of the experiment, the stylet in the guide cannula was replaced with the microdialysis probe (CMA/11 with 4 mm membrane, CMA Microdialysis Inc., Acton, Mass.) and a vascular microdialysis probe (CMA/20 with 4 mm membrane, CMA Microdialysis Inc, Acton, Mass.)) was implanted into a jugular vein. The probes had inlet tubes connected to syringes to deliver artificial cerebrospinal fluid (146 mM NaCl, 1.2 mM CaCl2, 3 mM KCl, 1 mM MgCl2, 1.9 mM Na2HPO4, 0.1 mM NaH2PO4, pH 7.4) into the ventricle and Dulbecco's phosphate-buffered saline (D-PBS) into the blood at 0.5 μl/min flow rate. […]
# The drug concentration in the microdialysate was measured by CE-UV (Agilent 3D CE). […] The absorbance from the drug was detected with UV at 280 nm. […]
# Two-way repeated measures ANOVA followed by Tukey's test was used. […] CNS penetration is determined as the ratio of CSF and blood area under the curve (AUC).
smiles,measurement,setting,value
"CN1C(=O)N[C@H]2[C@@H]3NC(=O)c4ccc(Br)n4[C@@H]3C[C@]21O [AA, agelastatin A, reference compound]",Raji lymphoma cell invasion (Matrigel),[1],significantly decreased invasiveness; also recorded: blocks Raji lymphoma cell invasion
same,NFkB signaling in Raji cells (reporter assay),[2],significantly downregulated NFkB signaling; also recorded: attenuates the NFkB signaling
same,NFkB signaling activity of Raji cells implanted in the murine brain (BLI),[3],can impact the molecular signaling activity (NFkB signaling pathway) in a brain tumor; also recorded: decreased the NFkB signaling activity
same,brain invasiveness of Raji lymphoma cells (ex vivo brain slice),[4],significantly decreased and disabled the brain invasiveness; also recorded: decreases the brain invasiveness of Raji lymphoma cells; also recorded: No AA-treated lymphoma cells were found in the brain slice
same,lateral dissemination of lymphoma cells,[5]; T2 (2.5 mg/kg i.p.) and T3 (5 mg/kg i.p.) groups,decreased lateral dissemination of lymphoma cells
same,lymphoma cell dissemination in the anterior and posterior direction,"[5]; all the treatment groups (1, 2.5, 5 mg/kg i.p.)",Dissemination of lymphoma cells was decreased
same,dissemination of lymphoma cells in the brain,"[5]; contralateral brain hemisphere, CD20 IHC",significantly decreased dissemination of lymphoma cells in the brain; also recorded: decreases the dissemination of Raji lymphoma cells inside the brain
"CN1C(=O)N[C@H]2[C@@H]3NC(=O)c4ccc(Cl)n4[C@@H]3C[C@]21O [CAA, chloroagelastatin A]",Kp,[6],0.16
"CCN1C(=O)N[C@H]2[C@@H]3NC(=O)c4ccc(Cl)n4[C@@H]3C[C@]21O [CEAA, chloroethylagelastatin A]",Kp,[6],0.27
"CCN1C(=O)N[C@H]2[C@@H]3NC(=O)c4cc(Cl)c(Cl)n4[C@@H]3C[C@]21O [DCEAA, dichloroethylagelastatin A]",Kp,[6],0.307
